# Earlier results in US8586054B2, “Method for modulating, treating and/or preventing metabolic syndrome using MAS-G-protein-coupled receptor agonists” (Max-Delbruck-Centrum fur Molekulare Medizin, priority 2006, dated 2013).
# Assays:
# [1] = LIFE study; compared with atenolol
# [2] = HOPE study; versus placebo
# [3] = VALUE study; hypertensive patients, valsartan versus amlodipine
compound,measurement,setting,value
CCCCc1nc(Cl)c(CO)n1Cc1ccc(-c2ccccc2-c2nn[nH]n2)cc1 [Losartan],reduction in the appearance of new cases of diabetes,[1],25%
CCOC(=O)[C@H](CCc1ccccc1)N[C@@H](C)C(=O)N1[C@H](C(=O)O)C[C@@H]2CCC[C@@H]21 [ramipril],incidence of diabetes lower than in the group that received placebo,[2],34%
CCCCC(=O)N(Cc1ccc(-c2ccccc2-c2nnn[nH]2)cc1)[C@H](C(=O)O)C(C)C [valsartan],reduction in new cases of diabetes,[3],23%
